Test results published in PubChem BioAssay (NCI).
“And” between values parts separate entries of the source, which are not always exact repeats. Equal values may be shown once.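 Tested at 5 concentrations; 48 h exposure; 96-well plates; endpoints linearly interpolated, else capped at highest concentration. GI50 = concentration required for 50% inhibition of growth. TGI denotes the concentration required for complete inhibition of growth.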

Experiments:
Test in all cases: inhibition of tumour cell growth, NCI panel, 48 h
DLD-1 colon = tested on: DLD-1 colon
DMS 114 small cell lung = tested on: DMS 114 small cell lung
DMS 273 small cell lung = tested on: DMS 273 small cell lung
HL-60(TB) leukemia = tested on: HL-60(TB) leukemia
HOP-18 NSCLC = tested on: HOP-18 NSCLC
HOP-92 NSCLC = tested on: HOP-92 NSCLC
K-562 leukemia = tested on: K-562 leukemia
SF-539 CNS = tested on: SF-539 CNS
U251 CNS = tested on: U251 CNS
T-47D breast = tested on: T-47D breast

Row | SMILES | TGI (DLD-1 colon) [µM] | TGI (DMS 114 small cell lung) [µM] | TGI (DMS 273 small cell lung) | TGI (HL-60(TB) leukemia) [µM] | TGI (HOP-18 NSCLC) | TGI (HOP-92 NSCLC) | TGI (K-562 leukemia) [µM] | TGI (SF-539 CNS) | TGI (U251 CNS) | GI50 (HL-60(TB) leukemia) [µM] | GI50 (HOP-92 NSCLC) [µM] | GI50 (K-562 leukemia) [µM] | GI50 (T-47D breast) | TGI (T-47D breast) [µM] | GI50 (U251 CNS) [µM] | GI50 (SF-539 CNS) [µM] | GI50 (DLD-1 colon) [µM] | GI50 (DMS 114 small cell lung) [µM] | GI50 (DMS 273 small cell lung) [µM] | GI50 (HOP-18 NSCLC) [µM]
1 | CSc1ccc(-c2cn3ccsc3n2)c(O)c1 | > 100 | > 60.9 | > 100 µM | > 63.1 | > 100 µM | > 100 µM | > 60.2 | > 57.3 µM | > 100 µM |  |  |  |  |  |  |  |  |  |  | 
2 | CCCCCCCCCOC(=S)NC | 34.9 |  | 33.6 µM | 34.1 | 44.2 µM | 42.5 µM | 51.1 | 32.5 µM | 31.5 µM |  |  |  |  |  |  |  |  |  |  | 
3 | NC1=NC(=O)N2CC12 (stereo unspecified) | > 100 | > 100 | > 100 µM |  | > 100 µM | > 100 µM and 173 µM | > 100 | > 100 µM and 206 µM | > 100 µM and 620 µM | 13.7 | 70.8 | 38.9 | 26.7 µM and 54.5 µM | 316 | 154 |  |  |  |  | 
4 | CN1CCC23c4c5ccc(O)c4OC2C(=NN=C2CCC4(O)C6Cc7ccc(O)c8c7C4(CCN6C)C2O8)CCC3(O)C1C5 (stereo unspecified) | > 100 | > 100 | > 100 µM | > 100 | > 100 µM | > 100 µM | > 100 | > 100 µM | > 100 µM |  |  |  |  |  |  |  |  |  |  | 
5 | COc1cccc(/C=C(/C(=O)O)c2cc(OC)c(OC)c(OC)c2)c1 | > 100 | > 100 | > 100 µM | > 100 | > 100 µM | > 100 µM | > 100 | > 100 µM | > 100 µM |  |  |  |  |  |  |  |  |  |  | 
6 | CC1(C)CC23C(=O)N(c4ccccc4)C(=Nc4ccccc4)NC2=CC(C#N)=C(C#N)C3O1 (stereo unspecified) | > 100 | > 100 |  | 89.9 |  | 52.2 µM | > 100 | > 100 µM | > 100 µM |  |  |  |  |  |  |  |  |  |  | 
7 | C/C(=N\O)c1sc(-n2nc(-c3ccccc3)cc2-c2ccccc2)nc1C | 20.1 | 22.8 | 49.6 µM | 23 |  |  | 24.6 | 16.7 µM | 16.3 µM |  |  |  |  |  |  |  |  |  |  | 
8 | CCc1ccccc1NC(=O)/C(CC(=O)c1c(C)n([O-])c2ccccc2[n+]1=O)=N\NS(=O)(=O)c1ccc(C)cc1 | > 100 | 30.3 | > 100 µM | 41.6 |  |  | > 100 | > 100 µM | > 100 µM |  |  |  |  |  |  |  |  |  |  | 
9 | CCN(Cc1ccc(F)cc1)c1ccc(CO)c(Cl)c1 |  |  |  | 23.3 |  | 13.1 µM | > 100 | 35.1 µM | 15.1 µM | 3.63 | 0.956 | 1.57 | 0.0821 µM | 0.472 | 0.654 | 15.1 |  |  |  | 
10 | COC1=CC(=O)c2ccc(C(C)C)cc2C1(C)C1=NC(C)(C)CO1 (stereo unspecified) | > 100 | > 100 | > 100 µM | > 100 | > 100 µM | > 100 µM | > 100 | > 100 µM | > 100 µM |  |  |  |  |  |  |  |  |  |  | 
11 | O=C(OC(C(=O)O)C(OC(=O)c1ccccc1)C(=O)O)c1ccccc1 (stereo unspecified) (tested in a mixture with another compound) | > 100 |  | > 100 µM and 14.1 µM | > 37.8 | 9.71 µM and 84.2 µM | 55.9 µM | > 100 | > 100 µM | > 100 µM |  |  |  |  | > 100 |  |  |  |  |  | 
12 | CCOC(=O)C1Cc2c(ccc(OC)c2OC)C(=O)C1N (stereo unspecified) | > 100 | > 100 | > 100 µM | > 100 | > 100 µM | > 100 µM | > 100 | > 100 µM | > 100 µM |  |  |  |  |  |  |  |  |  |  | 
13 | C[C@]12CCC[C@H](OC=O)C1(O)C[C@H](C(=O)O)CC2 (stereo partly specified) | > 100 | > 100 | > 100 µM | > 100 | > 100 µM | > 100 µM | > 100 | > 100 µM | > 100 µM |  |  |  |  |  |  |  |  |  |  | 
14 | CC(=O)[O-].CC(=O)[O-].[Mn+2].c1ccc(/C(=N\Nc2ccccn2)c2ccccn2)cc1 | 22.7 | 0.0212 |  | 0.00504 | 14.3 µM | 11 µM |  | 0.665 µM | 8.15 µM | 0.00173 | 0.205 | 0.00305 |  | 12 |  |  |  |  |  | 
15 | CCCCCCN(CCCCCC)C(=N)c1ccnc2ccccc12 |  |  |  | 16.8 |  | 9.22 µM | 8.35 | 17.5 µM | 10.9 µM | 2.93 | 1.39 | 2.37 | 3.04 µM | 13.2 | 3.31 | 5.12 |  |  |  | 
16 | Nc1ncc(-c2cnn(C3CCNCC3)c2)cc1-c1nc2ccccc2o1 |  |  |  | 1.66 |  | 2.05 µM | 1.07 | 2.83 µM | 3.26 µM | 0.472 | 0.553 | 0.309 | 1.67 µM | 4.88 | 1.48 | 1.5 |  |  |  | 
17 | CC[O-].CC[O-].[O-]c1ccccc1C=Nc1ccccc1.[O-]c1ccccc1C=Nc1ccccc1.[Ti+4] | > 100 | > 100 | > 100 µM | > 100 | > 100 µM | > 100 µM | > 100 | > 100 µM | > 100 µM | > 100 | > 100 | 0.789 |  |  | > 100 | > 100 | > 100 | 75.2 | 21 | > 100
